PMC7588913, “A Peptide Found in Human Serum, Derived from the C-Terminus of Albumin, Shows Antifungal Activity In Vitro and In Vivo” (Microorganisms, 2020)
Where two headings read alike, the source gives them in different places. Where a SMILES comes first, the peptide text is derived from it.

Legend:
LLC-MK2 cells = type: cell-based, Rhesus monkey
Procedure: (§1) The hemolytic and cytotoxic activity of the selected peptides (25, 50 and 100 μM) was evaluated as previously described. For the evaluation of hemolytic activity, peptides were added to human erythrocytes (blood group 0 Rh+, final concentration, 2.5% v/v) and hemoglobin release was estimated after 30 and 120 min incubation by measuring the absorbance of the supernatant at 540 nm. Erythrocytes suspended in phosphate buffered saline (PBS) and Triton 1% were the controls for zero (blank) and 100% hemolysis, respectively. Cytotoxicity against Rhesus monkey kidney epithelial cells (LLC-MK2 line) treated with peptides for 24 h was assessed after resazurin addition by measuring fluorescence intensity at 572 nm. Cells in medium without peptide served as control (100% viability). Each assay was carried out in duplicate and at least 2 independent replicates were performed for each experiment.
(§2) Data are reported as the mean ± SD. Statistical significance was assessed by t test, p < 0.05 was considered significant.

Galleria mellonella = test: In vivo toxicity in Galleria mellonella larvae; settings: K13L 33.33 mg/kg into the haemocoel, 37 °C, monitored 9 days, Mantel–Cox log-rank test
Procedure: The potential therapeutic activity of K13L was evaluated by the G. mellonella model of experimental candidiasis, according to a previously described procedure. To preliminarily evaluate in vivo toxicity, a solution of K13L (33.33 mg/kg) was inoculated directly into the haemocoel, via the last left pro-leg, in larvae at their final instar stage (body weight, 300 ± 20 mg, 10 μL/larva). Larvae inoculated with 10 μL of saline solution and untouched larvae served as controls. All animals were incubated at 37 °C in the dark and monitored daily for survival for 9 days. For the evaluation of therapeutic activity, larvae (16/group) were challenged with C. albicans SC5314 (5 × 10^5 yeast cells/larva, 10 μL) via the last left pro-leg. A solution of K13L (16.66 mg/kg,) or saline (control) was injected 60 min later, via the last right proleg (10 μL). Larvae were monitored daily for 9 days after infection. The log rank (Mantel–Cox) test was used to compare survival curves by Graph Pad Prism software.

C. albicans SC5314 = test: Colony forming unit (CFU) candidacidal assay; type: cell-based, Candida albicans; settings: 100 μg/mL vs reference strain C. albicans SC5314, CFU assay
Procedure: The fungicidal activity of the selected peptides was evaluated in vitro by a previously described colony forming unit (CFU) assay. All peptides were preliminarily tested at the concentration of 100 μg/mL vs. the reference strain C. albicans SC5314. […] After incubation at 37 °C for 6 h in the presence or absence (control growth) of the peptides, fungal cell suspensions (approximately 500 cells/100 μL of distilled water) were spread on Sabouraud Dextrose agar plates. After incubation at 30 °C for 48–72 h, CFUs were enumerated. Each assay was carried out in triplicate and at least 2 independent experiments were performed for each condition. EC50 values were calculated by nonlinear regression analysis using Graph Pad Prism 4.01 software, San Diego, CA, USA. Time kinetics of K13L-mediated killing against the reference C. albicans strain was determined by CFU assays, as described above, after incubation of yeast cells for 30 min, 1, 2, 4 and 6 h with K13L at different concentrations.

human erythrocytes = type: cell-based
Procedure: as §1, §2

Structure (SMILES)	Cell Viability (%) (LLC-MK2 cells; 25 µM)	Cell Viability (%) (LLC-MK2 cells; 50 µM)	Cell Viability (%) (LLC-MK2 cells; 100 µM)	Survival of larvae vs saline-inoculated larvae (in vivo toxicity) (Galleria mellonella)	Fungicidal activity in preliminary assay (C. albicans SC5314)	Hemolysis (%) (human erythrocytes; 25 µM)	Hemolysis (%) (human erythrocytes; 50 µM)
CC(C)C[C@H](NC(=O)CNC(=O)[C@H](CC(C)C)NC(=O)[C@H](C)NC(=O)[C@H](C)NC(=O)[C@H](CCC(N)=O)NC(=O)[C@H](CO)NC(=O)[C@H](C)NC(=O)[C@H](C)NC(=O)[C@@H](NC(=O)[C@H](CC(C)C)NC(=O)[C@H](CCCCN)NC(=O)[C@@H](N)CCCCN)C(C)C)C(=O)O [Peptide K13L] (H-KKLVAASQAALGL-OH)	105.95 ± 1.47%	105.04 ± 0.20%	101.26 ± 0.38%	No significant difference in survival			
CC(C)[C@H](NC(=O)[C@@H](NC(=O)[C@H](Cc1ccccc1)NC(=O)CNC(=O)[C@H](CCC(=O)O)NC(=O)[C@H](CC(N)=O)NC(=O)[C@H](CCC(=O)O)NC(=O)[C@H](CCCCN)NC(=O)[C@@H](NC(=O)[C@H](CCC(=O)O)NC(=O)[C@H](CCC(=O)O)NC(=O)[C@@H](N)CO)[C@@H](C)O)[C@@H](C)O)C(=O)N[C@H](C(=O)N[C@@H](C)C(=O)N[C@@H](CCC(=O)O)C(=O)NCC(=O)N[C@@H](CCCCN)C(=O)O)[C@@H](C)O [Peptide S17K] (H-SEETKENEGFTVTAEGK-OH; N-terminus and C-terminus assumed)	103.47 ± 2.00%	102.69 ± 1.37%	101.73 ± 1.82%		no activity	0.00%	
CC[C@H](C)[C@H](NC(=O)[C@H](CCCCN)NC(=O)[C@H](CO)NC(=O)CNC(=O)[C@H](CC(C)C)NC(=O)[C@H](CO)NC(=O)[C@H](Cc1ccccc1)NC(=O)[C@H](CCC(N)=O)NC(=O)[C@H](CC(C)C)NC(=O)[C@H](CCC(=O)O)NC(=O)[C@H](CCC(=O)O)NC(=O)[C@H](CCC(=O)O)NC(=O)[C@H](CC(C)C)NC(=O)CN)C(=O)N[C@@H](CC(N)=O)C(=O)N[C@H](C(=O)N[C@@H](CCCCN)C(=O)O)C(C)C [Peptide G17K] (H-GLEEELQFSLGSKINVK-OH)	99.07 ± 1.57%	99.73 ± 0.45%	99.07 ± 1.57%			0.00%	
CC(C)C[C@H](NC(=O)[C@H](Cc1ccccc1)NC(=O)[C@H](CC(=O)O)NC(=O)CNC(=O)[C@H](CCC(=O)O)NC(=O)CNC(=O)[C@H](CO)NC(=O)[C@@H](N)CC(=O)O)C(=O)N[C@@H](C)C(=O)N[C@@H](CCC(=O)O)C(=O)NCC(=O)NCC(=O)NCC(=O)N[C@H](C(=O)N[C@@H](CCCNC(=N)N)C(=O)O)C(C)C [Peptide D15R] (H-DSGEGDFLAEGGGVR-OH; N-terminus and C-terminus assumed)	101.32 ± 1.92%	101.25 ± 0.19%	103.00 ± 1.49%		no activity		
C[C@H](NC(=O)[C@H](CCC(=O)O)NC(=O)[C@H](CO)NC(=O)CNC(=O)[C@H](C)NC(=O)[C@H](CCC(=O)O)NC(=O)[C@@H](N)CC(=O)O)C(=O)N[C@@H](CC(=O)O)C(=O)N[C@@H](Cc1c[nH]cn1)C(=O)N[C@@H](CCC(=O)O)C(=O)NCC(=O)N[C@H](C(=O)N[C@@H](Cc1c[nH]cn1)C(=O)N[C@@H](CO)C(=O)N[C@H](C(=O)O)[C@@H](C)O)[C@@H](C)O [Peptide D15T] (H-DEAGSEADHEGTHST-OH; N-terminus and C-terminus assumed)	108.50 ± 0.92%	107.55 ± 1.48%	108.50 ± 5.15%		no activity	0.00%	0.00%
